Results taken from US20130059773A1, “COMPOUNDS FOR THE TREATMENT OF INFLAMMATION AND NEUTROPENIA” (priority 2010, published 2013).
“Also recorded” adds a separate entry of the source. Where a SMILES comes first, the peptide text is derived from it. The star is where a group is joined. Cbz = O=C(OCc1ccccc1)*

Key:
Format in all cases: cell-based, human
neutrophils [1] = experiment: Neutrophil apoptosis/survival by phosphatidylserine externalization after annexin-V and 7-AAD labeling; details: for Effect of proteasome inhibitors on neutrophil death: neutrophils 15 h at 37° C.
Experimental: Analysis of apoptosis. Neutrophil apoptosis was triggered by incubating neutrophils at 37° C. alone (constitutive apoptosis) or with anti-Fas mAb (10 ng/ml; Beckman-Coulter) or gliotoxin ([…]; Sigma) (Ward et al. 1999, J. Biol. Chem. 274:4309-4318) for the indicated times. Neutrophil apoptosis was evaluated by phosphatidylserine externalization after annexin-V and 7-AAD labeling (Kantari et al. 2007, Blood 110:4086-4095); mitochondrial depolarization after DiOC6 labeling (Moriceau et al. 2009, J. Immuno1.182:7254-7263); caspase-3 and caspase-8 activities measured by spectrophotometry (Biovision) in neutrophil lysates. In DMF-differentiated-PLB985 cells, apoptosis was triggered by gliotoxin or by rTRAIL (10 ng/ml; RD System) (Yin et al. 2005, Int. J. Biochem. Cell Biol. 37:1696-1708) and caspase-8 and caspase-9 activities were determined after gating on CD11b^+ cells using the Caspase-Glow® assay (Promega). Apoptosis-induced chromatin condensation and DNA fragmentation were assessed, respectively, after DNA staining with the blue fluorescent dye Hoechst (5 mg/ml) and propidium-iodide staining (Goepel et al. 2004, J. Leukoc. Biol. 75:836-843). Carboxyp21 ([…], SEQ ID NO: 24) corresponding to the p21 carboxy-terminus sequence (residues 141-160) and containing a RYIRS carboxy-terminal extension to facilitate its cell entry was synthesized and purified (Genecust). A modified peptide in which the charged amino acids responsible for its binding to PCNA have been changed according to dynamic simulation studies ([…], SEQ ID NO: 25) served as control. The effect of PS-341 (LC Laboratories) and MG132 were tested on neutrophil apoptosis and PCNA expression as indicated.

PCNA = PCNA expression in neutrophils by Western blot; details: for Effect of proteasome inhibitors on apoptosis-induced PCNA diminution: neutrophils 15 h at 37° C.
Experimental: Western blot analysis and co-immunoprecipitation experiments. Neutrophils were sonicated and cytosolic proteins were analyzed using either the PC10 mAb or the Ab5 pAb anti-PCNA according to standard immunoblot procedures (Moriceau et al. 2009, J. Immunol. 182:7254-7263). Co-immunoprecipitation experiments were performed using neutrophil cytosols obtained by cavitation (Witko-Sarsat et al. 1999, Blood 94:2487-2496). Cytosol ([…]) was mixed with […] of protein G and Ab5 pAb and incubated for 30 min at 4° C. under shaking. The sample was loaded onto a column containing Sepharose-coated magnetic beads (Milteny), washed with a stringent washing buffer (50 mM Tris, 500 mM NaCl, 1% NP-40, 0.5% Triton X-100). The column was washed twice with this buffer, twice with the same buffer except that the NaCl was 300 mM and, finally, 5 times with a hyposaline buffer (20 mM Tris pH 7.5). The sample was eluted from the column with […] 5× sample buffer and analyzed by Western blotting using different mAb to potential partners. PCNA was detected on the Western blot with the PC10 mAb and procaspases were detected with either anti-procaspase-8 (Calbiochem) mAb or mouse anti-procaspase-10 (Santa Cruz) or anti-procaspase-9 (Santa Cruz) or anti-procaspase-3 (Santa Cruz) mAbs, followed by horseradish peroxidase-conjugated anti-mouse IgG (Nordic Immunology diluted 1:5000), using the SuperSignal West Pico detection kit (Pierce).

neutrophils [2] = experiment: Effects of the peptides on neutrophil apoptosis (annexin V / 7-AAD flow cytometry); details: for Early Apoptosis, Mean / Late Apoptosis, Mean / Total Apoptosis, Mean: peptide concentration = 200 μM, 16 h at 37° C.; for Early Apoptosis, Mean: percentage annexin-V positive and 7-AAD negative; for Late Apoptosis, Mean: percentage annexin-V positive and 7-AAD positive; for Total Apoptosis, Mean: percentage of cells either 7-AAD or annexin-V-positive; for Early Apoptosis / Late Apoptosis / Total Apoptosis: peptide concentration = 500 μM
Experimental: Effects of the peptides on neutrophil apoptosis. Neutrophils were isolated from the blood of healthy volunteers using polymorphoprep (Witko-Sarsat et al. 1999; Blood 94:2487-96). Physiological apoptosis of these neutrophils was then activated by incubating them at 37° C. during 16 h in RPMI culture medium complemented with 10% serum. Under these conditions, neutrophils undergo a spontaneous apoptosis which can be evaluated by measuring the phosphatidylserine externalization (Kantari et al. 2007; Blood 110:4086-95; Moriceau et al. 2009; J Immunol 182:7254-63). Phosphatidylserine was stained using a fluorochrome-coupled annexin V allowing detection of apoptotic neutrophils by flow cytometry using a Facscan (Beckton Dickinson). Neutrophils stained with annexin V express the phosphatidylserine and are recognized and phagocytosed by macrophages. Furthermore, a secondary staining with the 7AAD intercalating agent was used to indicate late apoptosis (Durant et al. 2004; J Leukocyte Biol 75:87-98). Thus, total apoptosis is measured by the percentage of cells being either 7-AAD or annexin-V-positive (the rest of the cells being considered as viable). Early apoptosis is measured by the percentages of neutrophils being both annexin-V positive and 7-AAD negative. Late apoptosis is measured by the percentages of neutrophils being both annexin-V positive and 7-AAD positive. The necrotic cells being 7AAD positive are excluded from the analysis on the basis of the data of size/granulometry by flow cytometry analysis. […]
The peptides were added to the neutrophil cells and their effect on cell apoptosis was analyzed by measuring the phosphatidylserine externalization. Phosphatidylserine was stained using a fluorochrome-coupled annexin V allowing detection of apoptotic neutrophils by flow cytometry. Neutrophils stained with annexin V express the phosphatidylserine and are recognized and phagocytosed by macrophages. Furthermore, a secondary staining with the 7AAD intercalating agent was used to indicate late apoptosis, allowing distinction between early and late apoptosis.

neutrophils [3] = experiment: Neutrophil apoptosis by mitochondrial depolarization after DiOC6 labeling; set-up: dose or concentration left out as unconfirmed; details: 6 h at 37° C., peptide
Experimental: Analysis of apoptosis. Neutrophil apoptosis was triggered by incubating neutrophils at 37° C. alone (constitutive apoptosis) or with anti-Fas mAb (10 ng/ml; Beckman-Coulter) or gliotoxin ([…]; Sigma) (Ward et al. 1999, J. Biol. Chem. 274:4309-4318) for the indicated times. Neutrophil apoptosis was evaluated by phosphatidylserine externalization after annexin-V and 7-AAD labeling (Kantari et al. 2007, Blood 110:4086-4095); mitochondrial depolarization after DiOC6 labeling (Moriceau et al. 2009, J. Immuno1.182:7254-7263); caspase-3 and caspase-8 activities measured by spectrophotometry (Biovision) in neutrophil lysates. In DMF-differentiated-PLB985 cells, apoptosis was triggered by gliotoxin or by rTRAIL (10 ng/ml; RD System) (Yin et al. 2005, Int. J. Biochem. Cell Biol. 37:1696-1708) and caspase-8 and caspase-9 activities were determined after gating on CD11b^+ cells using the Caspase-Glow® assay (Promega). Apoptosis-induced chromatin condensation and DNA fragmentation were assessed, respectively, after DNA staining with the blue fluorescent dye Hoechst (5 mg/ml) and propidium-iodide staining (Goepel et al. 2004, J. Leukoc. Biol. 75:836-843). Carboxyp21 ([…], SEQ ID NO: 24) corresponding to the p21 carboxy-terminus sequence (residues 141-160) and containing a RYIRS carboxy-terminal extension to facilitate its cell entry was synthesized and purified (Genecust). […]

With `CC(C)C[C@@H](C=O)NC(=O)[C@H](CC(C)C)NC(=O)[C@H](CC(C)C)NC(=O)OCc1ccccc1` [MG132, reference compound] (Cbz-Leu-Leu-Leu-aldehyde) the “Effect of proteasome inhibitors on neutrophil death” value (neutrophils [1]) was “significantly inhibited neutrophil death” and the “Effect of proteasome inhibitors on apoptosis-induced PCNA diminution” value (PCNA) was “reversed the apoptosis-induced PCNA diminution”.

For `CC(C)C[C@H](NC(=O)[C@H](Cc1ccccc1)NC(=O)c1cnccn1)B(O)O` [PS-341, reference compound], the “Effect of proteasome inhibitors on neutrophil death” value (neutrophils [1]) was “significantly inhibited neutrophil death”, the “Effect on PCNA degradation after incubation with anti-Fas or gliotoxin” value (PCNA; 6 h at 37° C., PS-341 (1 mM)) was “reversed PCNA degradation” and the “Effect of proteasome inhibitors on apoptosis-induced PCNA diminution” value (PCNA) was “reversed the apoptosis-induced PCNA diminution”.

For APNQEKVSDYEMKLMRYIRS [peptide 1], the “Early Apoptosis, Mean” value (neutrophils [2]) was 62.52, the “Late Apoptosis, Mean” value (neutrophils [2]) was 11.47 and the “Total Apoptosis, Mean” value (neutrophils [2]) was 73.67. For the same compound, the “Early Apoptosis” value (neutrophils [2]; Table V (peptides 1-4)) was 65.06, the “Late Apoptosis” value (neutrophils [2]; Table V (peptides 1-4)) was 6.62 and the “Total Apoptosis” value (neutrophils [2]; Table V (peptides 1-4)) was 68.74.

For KDGVKFRYIRS [peptide 5], the “Early Apoptosis, Mean” value (neutrophils [2]) was 62.44, the “Late Apoptosis, Mean” value (neutrophils [2]) was 12.36 and the “Total Apoptosis, Mean” value (neutrophils [2]) was 74.36. For the same compound, the “Early Apoptosis” value (neutrophils [2]; Table VI (peptides 5-9)) was 75.21, the “Late Apoptosis” value (neutrophils [2]; Table VI (peptides 5-9)) was 5.39 and the “Total Apoptosis” value (neutrophils [2]; Table VI (peptides 5-9)) was 77.67.

In the case of “KRRQTGETDFDHAKAALIFSRYIRS [modified carboxy-21 peptide, reference compound]”, the “Apoptotic neutrophils as cells with depolarized mitochondria after DiOC6 labeling” value (neutrophils [3]) is reported as “no such activity was observed”.

In the case of KRRQTSMTDFYHSKRRLIFSRYIRS [carboxyp21], the “Apoptotic neutrophils as cells with depolarized mitochondria after DiOC6 labeling” value (neutrophils [3]) is reported as “triggered neutrophil apoptosis”, the “Cells with externalized phosphatidylserine after annexin-V labeling” value (neutrophils [1]; 6 h at 37° C., 50 mM peptide) is reported as “significantly increased percentage of cells with externalized phosphatidylserine” and the “Effect on G-CSF-induced neutrophil survival” value (neutrophils [1]; G-CSF 1000 U/ml, carboxyp21 50 μM, 15 h) is reported as “significantly inhibited G-CSF-induced neutrophil survival”. The “PCNA expression in neutrophils exposed to increasing peptide concentrations” value (PCNA; 3 h, increasing carboxyp21 concentrations) was “dose-dependent decrease of PCNA expression”.

MKLMDLDVEQLGIPEQEYSRYIRS [peptide 3] was tested, and the “Pro- or anti-apoptotic activity on neutrophils, conclusion in words” value (“Pro- or anti-apoptotic activity” for short) (neutrophils [2]) was “exhibit a pro-apoptotic activity on neutrophils”, the “Effect on annexin V staining (neutrophil apoptosis), in words” value (neutrophils [2]; 500 μM) was “induced an increase of the annexin V staining” and the “Early Apoptosis, Mean” value (neutrophils [2]) was 63.00. The “Late Apoptosis, Mean” value (neutrophils [2]) was 13.27, the “Total Apoptosis, Mean” value (neutrophils [2]) was 76.20 and the “Early Apoptosis” value (neutrophils [2]; Table V (peptides 1-4)) was 68.05. For the same compound, the “Late Apoptosis” value (neutrophils [2]; Table V (peptides 1-4)) was 12.63 and the “Total Apoptosis” value (neutrophils [2]; Table V (peptides 1-4)) was 78.56.

For MSADVPLRYIRS [peptide 7], the “Early Apoptosis, Mean” value (neutrophils [2]) was 62.60, the “Late Apoptosis, Mean” value (neutrophils [2]) was 12.30 and the “Total Apoptosis, Mean” value (neutrophils [2]) was 74.40. For the same compound, the “Early Apoptosis” value (neutrophils [2]; Table VI (peptides 5-9)) was 66.26, the “Late Apoptosis” value (neutrophils [2]; Table VI (peptides 5-9)) was 2.85 and the “Total Apoptosis” value (neutrophils [2]; Table VI (peptides 5-9)) was 64.85.

With SQTSNVDKEEEAVRYIRS [peptide 6] the “Early Apoptosis, Mean” value (neutrophils [2]) was 62.91, the “Late Apoptosis, Mean” value (neutrophils [2]) was 13.11 and the “Total Apoptosis, Mean” value (neutrophils [2]) was 76.02. The “Early Apoptosis” value (neutrophils [2]; Table VI (peptides 5-9)) was 66.43, the “Late Apoptosis” value (neutrophils [2]; Table VI (peptides 5-9)) was 5.2 and the “Total Apoptosis” value (neutrophils [2]; Table VI (peptides 5-9)) was 67.42.

For YGRKKRRQRRRAPNQEKVSDYEMKLM [peptide 2], the “Early Apoptosis, Mean” value (neutrophils [2]) was 52.29, the “Late Apoptosis, Mean” value (neutrophils [2]) was 17.38 and the “Total Apoptosis, Mean” value (neutrophils [2]) was 69.33. The “Early Apoptosis” value (neutrophils [2]; Table V (peptides 1-4)) was 46.92, the “Late Apoptosis” value (neutrophils [2]; Table V (peptides 1-4)) was 23.97 and the “Total Apoptosis” value (neutrophils [2]; Table V (peptides 1-4)) was 68.08.

With “YGRKKRRQRRRMKLMDLDVEQLGIPEQEYS [peptide 4]” the “Pro- or anti-apoptotic activity” value (neutrophils [2]) was “exhibit a pro-apoptotic activity on neutrophils”, the “Effect on annexin V staining (neutrophil apoptosis), in words” value (neutrophils [2]; 200 μM) was “induced an increase of the annexin V staining” and the “Pro-apoptotic activity on late apoptosis, in words” value (neutrophils [2]; 200 μM, Table IV) was “particularly obvious on late apoptosis”. The “Early Apoptosis, Mean” value (neutrophils [2]) was 62.34, the “Late Apoptosis, Mean” value (neutrophils [2]) was 27.88 and the “Total Apoptosis, Mean” value (neutrophils [2]) was 89.83. For the same compound, the “Early Apoptosis” value (neutrophils [2]; Table V (peptides 1-4)) was 53.11, the “Late Apoptosis” value (neutrophils [2]; Table V (peptides 1-4)) was 33.74 and the “Total Apoptosis” value (neutrophils [2]; Table V (peptides 1-4)) was 82.84.

With YGRKKRRQRRRYYLAPKIEDEEGS [peptide 9] the “Pro- or anti-apoptotic activity” value (neutrophils [2]) was “capable of preventing neutrophil apoptosis”, the “Early Apoptosis, Mean” value (neutrophils [2]) was 50.03 and the “Late Apoptosis, Mean” value (neutrophils [2]) was 23.90. For the same compound, the “Total Apoptosis, Mean” value (neutrophils [2]) was 73.43, the “Early Apoptosis” value (neutrophils [2]; Table VI (peptides 5-9)) was 48.44 and the “Late Apoptosis” value (neutrophils [2]; Table VI (peptides 5-9)) was 26.32. For the same compound, the “Total Apoptosis” value (neutrophils [2]; Table VI (peptides 5-9)) was 71.84.

In the case of YYLAPKIEDEEGSRYIRS [peptide 8], the “Pro- or anti-apoptotic activity” value (neutrophils [2]) is reported as “significant anti-apoptotic activity; also recorded: capable of preventing neutrophil apoptosis”, the “Early Apoptosis, Mean” value (neutrophils [2]) is reported as 40.67 and the “Late Apoptosis, Mean” value (neutrophils [2]) is reported as 6.23. The “Total Apoptosis, Mean” value (neutrophils [2]) was 46.43, the “Early Apoptosis” value (neutrophils [2]; Table VI (peptides 5-9)) was 48.94 and the “Late Apoptosis” value (neutrophils [2]; Table VI (peptides 5-9)) was 8.99. For the same compound, the “Total Apoptosis” value (neutrophils [2]; Table VI (peptides 5-9)) was 48.77.

With “interferon-g: cytokine that prolongs neutrophil survival” the “Effect on PCNA degradation in neutrophils” value (PCNA) was “prevented PCNA degradation”.
